Key:
HEPG2 cells [HEPG2细胞] [1] = assay: In vitro cytotoxicity experiment (体外细胞毒性实验); assay type: cell-based; settings: sorafenib 4 uM, 2800Z 60 uM, each alone or combined, 12, 24, 36 h
[2] = test system: mouse liver cancer (subcutaneous HEPG2 cells in nude mice) [小鼠肝癌]; assay: In vivo anti-liver-cancer experiment (体内抗肝癌实验), subcutaneous HEPG2 tumours in nude mice; settings: 14 days, i.p. three times per week for two weeks
HEPG2 cells [HEPG2细胞] [3] = settings: known IC50 value of the chemotherapeutic drug; cell line not printed in the clause; cited from earlier work
[4] = sorafenib 1 mg/kg, 2800Z 4 mg/kg, each alone or combined

SMILES: CNC(=O)c1cc(Oc2ccc(NC(=O)Nc3ccc(Cl)c(C(F)(F)F)c3)cc2)ccn1 [索拉菲尼, Sorafenib]
- cytotoxicity (in words) (HEPG2 cells [HEPG2细胞] [1]): 细胞毒性较差
- liver cancer volume compared with the untreated group (in words) ([2]; sorafenib 1 mg/kg or 2800Z 4 mg/kg): 与未给药组的结果相近
- inhibition of mouse liver cancer (in words) [2, 4]: 抑制作用较弱
- liver cancer (tumour) volume [2, 4]: ~1000 mm3
- IC50 (HEPG2 cells [HEPG2细胞] [3]): 10 µM
